How the values were obtained:
[1] = Comparison of metal salts or conjugates hydro-acupuncture (water-carrier) preparation: pH value and clarity; type: physicochemical; details: 2.0 mg/ml in water, as dissolved
Experimental: Proper amount of different rhein or rhein-containing effective part metal salts or conjugates were put into a 10 ml volumetric flask, added with water, shaken and dissolved for constant volume, and then a water-carrier preparation was obtained. Rhein or rhein-containing effective part sodium salts or sylvan preparation are adjusted to the original pH with diluted hydrochloric acid and the results were shown in Table 4.

obese hyperglycemia mice = assay: Body weight and blood glucose of obese hyperglycemia mice; type: in vivo
Experimental: 9-week-old obese mice of hyperglycemia were randomly divided into: rhein sodium group, non-treatment group, rosiglitazone group, rhein lysine high-dose group and low-dose group, each group has 6 mice. Kunming mice of the same age were used as the control group, which were fed by conventional feedstuff with free food and water feeding. Rhein lysine conjugates [the dose is 180 mg/kg (0.418 mmol/kg) and 90 mg/kg (0.209 mmol/kg) for intragastric infusion, prepared with distilled water], dose of the rhein sodium group is 130 mg/kg (0.424 mmol/kg), the mixture was dissolved with distilled water, intragastric administration; rosiglitazone group (the dose is 4 mg/kg), the mixture was dissolved with distilled water, intragastric administration, and the rats of the other two groups were administered with the same volume of distilled water, once a day, 12 weeks of administration in succession. The animals' body weight and blood sugar were measured regularly, and statistical analysis was conducted.

rats = assay: Intestinal adhesion in rats; type: in vivo; details: 10 mg/kg once every two days, 7th day
Experimental: Rats were fasted for 12 h and models were built according to the methods in the literature [Xu Shuyun, Methodology in Pharmacological Experiment (the 3rd version): 1335]. The rats were randomly divided into five groups, namely, model control group, dexamethasone group, rhein sodium group, rhein glucosamine large dose group and low dose group. Each group included 12 rats. […] The rats of the model group were administered with the same volume of NS, while the rats of the positive control group were administered with dexamethasone, administered once every two days, dose: 10 mg/kg. The administration volume was the same as the treatment group. The rats were killed on the 7th day and carried on laparotomy. Adhesion degree was classified and scored respectively. The classification and score of the observed index-adhesion degree can refer to the five-grade classification method prepared by Nair, and determine the classification standard, see Schedule 13. Intestinal adhesion classification adopts Ridit analysis. The test results are as follows (Table 14): […]

[2] = baseline of group given ig 4 mg/kg once a day

For `O=C([O-])c1cc(O)c2c(c1)C(=O)c1cccc(O)c1C2=O.[K+]` [Rhein sylvin], the PH value [1] was 9-10 and the clarity [1] was “clear”.

For `CN(CCOc1ccc(CC2SC(=O)NC2=O)cc1)c1ccccn1` (stereo not shown) [Rosiglitazone], the “Blood glucose prior to administration” value (obese hyperglycemia mice; [2]) was 29.3 ± 4.7 mmol/L, the “Body weight prior to administration” value (obese hyperglycemia mice; [2]) was 29.3 ± 1.7 g and the “Blood glucose 6 w after administration” value (obese hyperglycemia mice; ig 4 mg/kg once a day) was 31.1 ± 4.9 mmol/L. For the same molecule, the “Blood glucose 9 w after administration” value (obese hyperglycemia mice; ig 4 mg/kg once a day) was 30.5 ± 4.5 mmol/L, the “Blood glucose 12 w after administration” value (obese hyperglycemia mice; ig 4 mg/kg once a day) was 27.9 ± 3.8 mmol/L and the “Body weight 6 w after administration” value (obese hyperglycemia mice; ig 4 mg/kg once a day) was 42.1 ± 1.9 g. The “Body weight 9 w after administration” value (obese hyperglycemia mice; ig 4 mg/kg once a day) was 48.2 ± 1.5 g and the “Body weight 12 w after administration” value (obese hyperglycemia mice; ig 4 mg/kg once a day) was 50.1 ± 1.8 g.

For `CNC[C@H](O)[C@@H](O)[C@H](O)[C@H](O)CO.O=C(O)c1cc(O)c2c(c1)C(=O)c1cccc(O)c1C2=O` [rhein meglumine conjugate, Rhein Meglumine Conjugate], the PH value [1] was 6-7 and the clarity [1] was “clear”.

For `C[C@@H]1C[C@H]2[C@@H]3CCC4=CC(=O)C=C[C@]4(C)[C@@]3(F)[C@@H](O)C[C@]2(C)[C@@]1(O)C(=O)CO` [dexamethasone], the “Rating of adhesion degree 0” value (rats; number of 12 rats with completely no adhesion) was 1, the “Rating of adhesion degree III” value (rats; number of 12 rats with more than two adhering zones) was 1 and the “Rating of adhesion degree I” value (rats; number of 12 rats with one adhering zone) was 2. The “Rating of adhesion degree IV” value (rats; number of 12 rats with organs adhering to abdominal wall directly) was 0 and the “Rating of adhesion degree II” value (rats; number of 12 rats with two adhering zones) was 8.

With `C[N+](C)(C)CC(O)CC(=O)[O-].O=C(O)c1cc(O)c2c(c1)C(=O)c1cccc(O)c1C2=O` [rhein carnitine conjugate, Rhein Carnitine Conjugate] the PH value [1] was 6-7 and the clarity [1] was “clear”.

From patent US9181172B2, “Rhein conjugates, preparation method thereof and their uses in producing medicines for treating diabetic nephrosis, intestinal adhesion and osteoarthritis” (priority 2005, dated 2015)
